Source: patent US9358225B2, “Method for treating neurodegeneration using a p38MAPK inhibitor” (Bach Pharma, Inc., priority 2013, dated 2016)

System: Atm−/− mice
Experiment: Modified rotarod behavioral test
Format: in vivo, mouse
Settings: P90, after treatment, vs PBS-treated Atm−/− and Atm+/+
Excerpt: The Atm−/− mice were originally generated by Dr. C. Barlow (Barlow et al., 1996). They were purchased from the Jackson Laboratory (Bar Harbor, Me.). Offspring of Atm+/− breeders were genotyped using real-time polymerase chain reaction-based assays of mouse tail DNA. Atm mice (1-month old) were divided into 3 groups: PBS-treated Atm+/+ mice (n=10/group); PBS-treated Atm−/− mice (n=9/group); and SB203580 (4-[5-(4-Fluorophenyl)-2-[4-(methylsulphonyl)phenyl]-1H-imidazol-4-yl]pyridine) treated Atm−/− mice (n=10/group). Mice were intraperitoneally injected with either PBS or SB203580 (4-[5-(4-Fluorophenyl)-2-[4-(methylsulphonyl)phenyl]-1H-imidazol-4-yl]pyridine) (5 mg/kg body weight) at 2-day intervals for 2 months. Animals were sacrificed one day after the last administration. Animal care was in accordance with The University of Texas MD Anderson Cancer Center guidelines for animal experiments.
We have devised a modified version of the standardized rotarod protocol (Columbus Instruments, Columbus, Ohio). […] Following training, three trials of mouse motor coordination were assessed by measuring the time before falling off the rotarod moving at 25 rpm.
Each experiment, including behavioral test, body weight measure and qRT-PCR was repeated at least three times. The proportion of mRNA expression was analyzed from a series of tissue sections. […]

Row | SMILES | rotarod performance (time before falling off at 25 rpm)
1 | CC1(C)c2ccc(C(=O)O)cc2C(C)(C)N1[O] [CTMIO, 5-carboxy-1,1,3,3-tetramethylisoindolin-2-yloxyl] | stayed on the rod as long as did Atm+/+ mice
2 | CC(=O)N[C@@H](CS)C(=O)O [NAC, N-acetyl-L-cysteine] | stayed on the rod as long as did Atm+/+ mice
